Results from ChEMBL document CHEMBL4145540 (Eur J Med Chem, 2018).
Activity calls are given as the source filed them. The rule behind the calls is not given here.

Assays:
HT-29 = assay: Antiproliferative activity against human HT-29 cells after 2 days by MTT assay; format: functional, cell-based; conditions: HT-29, 48 h
MCF7 = assay: Antiproliferative activity against human MCF7 cells after 2 days by MTT assay; format: functional, cell-based; conditions: MCF7, 48 h
HeLa = assay: Antiproliferative activity against human HeLa cells after 2 days by MTT assay; format: functional, cell-based; conditions: 48 h
A549 [1] = assay: Antiproliferative activity against human A549 cells after 2 days by MTT assay; format: functional, cell-based; conditions: A549, 48 h
HL-60 = assay: Antiproliferative activity against human HL60 cells after 2 days by MTT assay; format: functional, cell-based; conditions: HL-60, 48 h
HMEC-1 [2] = assay: Antiproliferative activity against HMEC1 cells after 2 days by MTT assay; format: functional, cell-based; conditions: Homo sapiens, HMEC-1, 48 h
HEK293 = assay: Antiproliferative activity against HEK293 cells after 2 days by MTT assay; format: cell-based; conditions: Homo sapiens, HEK293, 48 h
MDA-MB-231 [3] = assay: Antiproliferative activity against human MDA-MB-231 cells after 3 days by coulter counting method; format: functional, cell-based; conditions: MDA-MB-231, 72 h
[4] = Selectivity index, ratio of IC50 for antiproliferative activity against HEK293 cells to IC50 for antiproliferative activity against human MCF7 cells; format: toxicity, cell-based; conditions: HEK293 cells versus MCF7 cells, read-out: Ratio IC50
[5] = Selectivity index, ratio of IC50 for antiproliferative activity against HEK293 cells to IC50 for antiproliferative activity against human HT-29 cells; format: toxicity, cell-based; conditions: HEK293 cells versus HT-29 cells, read-out: Ratio IC50
[6] = Selectivity index, ratio of IC50 for antiproliferative activity against HEK293 cells to IC50 for antiproliferative activity against human HeLa cells; format: toxicity, cell-based; conditions: HEK293 cells versus HeLa cells, read-out: Ratio IC50
[7] = Selectivity index, ratio of IC50 for antiproliferative activity against HEK293 cells to IC50 for antiproliferative activity against human HL60 cells; format: toxicity, cell-based; conditions: HEK293 cells versus HL60 cells, read-out: Ratio IC50
Bos taurus = species: Bos taurus; assay: Inhibition of calf brain tubulin polymerization after 60 mins by turbidimetric method
A549 [8] = assay: Cell cycle arrest in human A549 cells assessed as accumulation at sub-G0 phase at 80 nM after 20 hrs by propidium iodide staining based flow cytometry (reference value: 6.6 +/- 0.1%); format: functional
A549 [9] = assay: Cell cycle arrest in human A549 cells assessed as accumulation at G0/G1 phase at 80 nM after 20 hrs by propidium iodide staining based flow cytometry (reference value: 66 +/- 1%); format: functional
A549 [10] = assay: Cell cycle arrest in human A549 cells assessed as accumulation at S phase at 80 nM after 20 hrs by propidium iodide staining based flow cytometry (reference value: 16 +/- 1%); format: functional
A549 [11] = assay: Cell cycle arrest in human A549 cells assessed as accumulation at G2/M phase at 80 nM after 20 hrs by propidium iodide staining based flow cytometry (reference value: 11 +/- 1%); format: functional
A549 [12] = assay: Induction of apoptosis in human A549 cells at 100 nM after 24 hrs by Annexin V-FITC/propidium iodide staining based flow cytometry (reference value: 28%); format: functional
A549 [13] = assay: Induction of apoptosis in human A549 cells at 10 nM after 24 hrs by Annexin V-FITC/propidium iodide staining based flow cytometry (reference value: 28%); format: functional
A549 [14] = assay: Induction of apoptosis in human A549 cells after 24 hrs by Annexin V-FITC/propidium iodide staining based flow cytometry; format: functional, cell-based
MDA-MB-231 [15] = assay: Inhibition of EBI binding to beta-tubulin colchicine binding site in human MDA-MB-231 cells at 3 uM preincubated for 16 hrs followed by EBI addition and measured after 1.5 hrs by Western blot analysis; format: cell-based
A549 [16] = assay: Cell cycle arrest in human A549 cells assessed as accumulation at sub-G0 phase at 75 nM after 20 hrs by propidium iodide staining based flow cytometry (reference value: 6.6 +/- 0.1%); format: functional
A549 [17] = assay: Cell cycle arrest in human A549 cells assessed as accumulation at G0/G1 phase at 75 nM after 20 hrs by propidium iodide staining based flow cytometry (reference value: 66 +/- 1%); format: functional
A549 [18] = assay: Cell cycle arrest in human A549 cells assessed as accumulation at S phase at 75 nM after 20 hrs by propidium iodide staining based flow cytometry (reference value: 16 +/- 1%); format: functional
A549 [19] = assay: Cell cycle arrest in human A549 cells assessed as accumulation at G2/M phase at 75 nM after 20 hrs by propidium iodide staining based flow cytometry (reference value: 11 +/- 1%); format: functional
HMEC-1 [20] = assay: Vascular disruptive activity in HMEC1 cells assessed as disruption of preformed tubular networks after 4 hrs by matrigel based assay; format: functional, cell-based; conditions: Homo sapiens
A549 [21] = assay: Cell cycle arrest in human A549 cells assessed as accumulation at sub-G0 phase at 70 nM after 20 hrs by propidium iodide staining based flow cytometry (reference value: 6.6 +/- 0.1%); format: functional
A549 [22] = assay: Cell cycle arrest in human A549 cells assessed as accumulation at S phase at 70 nM after 20 hrs by propidium iodide staining based flow cytometry (reference value: 16 +/- 1%); format: functional
A549 [23] = assay: Cell cycle arrest in human A549 cells assessed as accumulation at G2/M phase at 70 nM after 20 hrs by propidium iodide staining based flow cytometry (reference value: 11 +/- 1%); format: functional
A549 [24] = assay: Cell cycle arrest in human A549 cells assessed as accumulation at sub-G0 phase at 200 nM after 20 hrs by propidium iodide staining based flow cytometry (reference value: 6.6 +/- 0.1%); format: functional
A549 [25] = assay: Cell cycle arrest in human A549 cells assessed as accumulation at G0/G1 phase at 200 nM after 20 hrs by propidium iodide staining based flow cytometry (reference value: 66 +/- 1%); format: functional
A549 [26] = assay: Cell cycle arrest in human A549 cells assessed as accumulation at S phase at 200 nM after 20 hrs by propidium iodide staining based flow cytometry (reference value: 16 +/- 1%); format: functional
A549 [27] = assay: Cell cycle arrest in human A549 cells assessed as accumulation at G2/M phase at 200 nM after 20 hrs by propidium iodide staining based flow cytometry (reference value: 11 +/- 1%); format: functional

Row | Compound | IC50 (HT-29) [nM] | IC50 (MCF7) [nM] | IC50 (HeLa) [nM] | IC50 (A549 [1]) [nM] | IC50 (HL-60) [nM] | IC50 (HMEC-1 [2]) [nM] | IC50 (HEK293) [nM] | IC50 (MDA-MB-231 [3]) [nM] | selectivity ratio [4] | selectivity ratio [5] | selectivity ratio [6] | selectivity ratio [7] | inhibition (Bos taurus) | Activity (A549 [8]) [%] | Activity (A549 [9]) [%] | Activity (A549 [12]) [%] | Activity (A549 [13]) [%] | Activity (A549 [14]) | inhibition (MDA-MB-231 [15]) | Activity (HMEC-1 [20]) | further results
1 | COc1ccc(/C=C\c2cc(OC)c(OC)c(OC)c2)cc1NC(=O)Oc1cccc(Br)c1 | 11.3 | 5.9 | 2.6 | 160 | 5.6 | 12 | 16 | 13.4 | 2 to 11 | 2 to 11 | 2 to 11 | 2 to 11 | Active | 17 | 30 | 90 | 51 | Dose-dependent effect | – | – | Activity (A549 [10]): 12%; Activity (A549 [11]): 39%
2 | COc1ccc(/C=C\c2cc(OC)c(OC)c(OC)c2)cc1NC(=O)Oc1ccc(Br)cc1 | 3.5 | 0.75 | 1.2 | 150 | 5 | 7 | 19 | 4.07 | 2 to 11 | 2 to 11 | 2 to 11 | 2 to 11 | – | – | – | 95 | 36 | Dose-dependent effect | Active | Dose-dependent effect | Activity (A549 [16]): 19%; Activity (A549 [17]): 32%; Activity (A549 [18]): 17%; Activity (A549 [19]): 33%
3 | COc1ccc(/C=C\c2cc(OC)c(OC)c(OC)c2)cc1NC(=O)Oc1ccc(Cl)c(C)c1 | 11.4 | 8.1 | 3.3 | 140 | 0.4 | 7 | 8.4 | 4 | – | – | – | – | Active | – | – | 90 | 41 | Dose-dependent effect | Active | Dose-dependent effect | Activity (A549 [21]): 18%; Activity (A549 [22]): 22%; Activity (A549 [23]): 36%
4 | COc1cccc(OC(=O)Nc2cc(/C=C\c3cc(OC)c(OC)c(OC)c3)ccc2OC)c1 | 4.8 | 7.18 | 3.4 | 160 | 4.9 | 5 | 8.1 | 8 | – | – | – | – | – | 17 | 31 | 92 | 49 | Dose-dependent effect | Active | Dose-dependent effect | Activity (A549 [10]): 16%; Activity (A549 [11]): 36%
5 | COc1ccc(/C=C\c2cc(OC)c(OC)c(OC)c2)cc1NC(=O)Oc1cccc(C)c1 | 46 | 25 | 23 | 390 | 67 | 50 | 40 | 13.6 | – | – | – | – | – | – | – | – | – | – | – | – | Activity (A549 [24]): 22%; Activity (A549 [25]): 26%; Activity (A549 [26]): 16%; Activity (A549 [27]): 36%
6 | COc1cc2c(c(OC)c1OC)-c1ccc(OC)c(=O)cc1[C@@H](NC(C)=O)CC2 | – | – | – | – | – | – | – | – | – | – | – | – | – | – | – | – | – | – | Active | – | –
